Measurements from publication PMC9739398, “Substrate Specificity of GSDA Revealed by Cocrystal Structures and Binding Studies” (International Journal of Molecular Sciences, 2022).

Key:
AtGSDA [1] = biological target: T1, AtGSDA (Arabidopsis thaliana, UniProt Q94BU8); experiment: thermal shift; deamination by mass spectrometry; type: biochemical; conditions: weak substrate; crystal soak reached product stage
T1 construct: gene GSDA; SF form, Ser29-Tyr185, N-terminal 6xHis tag (pET-28a), recombinant, homodimer, zinc enzyme; full-length in pET-21b also made

AtGSDA [2] = biological target: T1, AtGSDA; experiment: thermal shift (dye); deamination by mass spectrometry; type: biochemical; conditions: printed as nearly 2; turned over to 2'-O-methylxanthosine
AtGSDA [3] = biological target: T1, AtGSDA; experiment: crystal structure; thermal shift; type: binding; conditions: active site, described as competitive inhibitor
GDA = biological target: T2, GDA (Escherichia coli, UniProt P76641); experiment: deamination by mass spectrometry; thermal shift; type: biochemical; conditions: enzyme:substrate 1:100; 50 mM sodium bicarbonate, neutral
T2 construct: gene guaD; recombinant, purified as in a cited protocol
T2 sequence (P76641 1-439): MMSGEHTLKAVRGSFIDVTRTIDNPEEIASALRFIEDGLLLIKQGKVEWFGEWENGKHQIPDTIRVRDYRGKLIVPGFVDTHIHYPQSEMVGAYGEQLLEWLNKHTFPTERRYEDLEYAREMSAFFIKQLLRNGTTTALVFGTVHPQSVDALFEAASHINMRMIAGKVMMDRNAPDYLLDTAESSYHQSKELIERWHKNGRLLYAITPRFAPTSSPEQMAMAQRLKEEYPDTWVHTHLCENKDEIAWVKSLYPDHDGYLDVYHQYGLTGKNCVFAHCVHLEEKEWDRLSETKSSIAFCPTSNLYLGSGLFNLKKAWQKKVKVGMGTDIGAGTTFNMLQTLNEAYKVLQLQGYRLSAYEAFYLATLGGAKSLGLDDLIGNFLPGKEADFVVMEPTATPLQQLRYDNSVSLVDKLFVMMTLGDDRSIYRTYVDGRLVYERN

AtGSDA [4] = biological target: T1, AtGSDA; experiment: thermal shift (dye); crystal structure (product formed from soaked guanosine); type: binding; conditions: printed as nearly 2; zinc enzyme; active site
AtGSDA [5] = biological target: T3, AtGSDA (Arabidopsis thaliana, UniProt Q94BU8, Y185E); experiment: thermal shift; type: binding
T3 construct: gene GSDA; SF form, Ser29-Tyr185, N-terminal 6xHis tag (pET-28a), recombinant, homodimer, zinc enzyme; full-length in pET-21b also made

AtGSDA [6] = biological target: T4, AtGSDA (Arabidopsis thaliana, UniProt Q94BU8, Y185F); experiment: thermal shift; type: binding
T4 construct: gene GSDA; SF form, Ser29-Tyr185, N-terminal 6xHis tag (pET-28a), recombinant, homodimer, zinc enzyme; full-length in pET-21b also made

AtGSDA [7] = biological target: T4, AtGSDA; experiment: crystal structure; thermal shift; type: binding; conditions: one ligand per dimer, substrate form
AtGSDA [8] = biological target: T5, AtGSDA (Arabidopsis thaliana, UniProt Q94BU8, Y185K); experiment: thermal shift; type: binding
T5 construct: gene GSDA; SF form, Ser29-Tyr185, N-terminal 6xHis tag (pET-28a), recombinant, homodimer, zinc enzyme; full-length in pET-21b also made

AtGSDA [9] = biological target: T6, AtGSDA (Arabidopsis thaliana, UniProt Q94BU8, E82Q); experiment: thermal shift; type: binding; conditions: catalytically impaired
T6 construct: gene GSDA; SF form, Ser29-Tyr185, N-terminal 6xHis tag (pET-28a), recombinant, homodimer, zinc enzyme; full-length in pET-21b also made
T6 sequence (Q94BU8 29-185 E82Q): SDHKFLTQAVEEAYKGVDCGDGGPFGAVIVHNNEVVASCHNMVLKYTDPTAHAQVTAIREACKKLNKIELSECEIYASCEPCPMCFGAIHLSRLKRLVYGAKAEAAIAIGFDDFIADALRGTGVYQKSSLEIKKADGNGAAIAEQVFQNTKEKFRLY

T1 sequence (Q94BU8 29-185): as the sequence (Q94BU8 29-185 E82Q) above, with Q54E counted along it
T4 sequence (Q94BU8 29-185 Y185F): as the sequence (Q94BU8 29-185 E82Q) above, with Q54E, Y157F counted along it
T3 sequence (Q94BU8 29-185 Y185E): as the sequence (Q94BU8 29-185 E82Q) above, with Q54E, Y157E counted along it
T5 sequence (Q94BU8 29-185 Y185K): as the sequence (Q94BU8 29-185 E82Q) above, with Q54E, Y157K counted along it

For CNc1nc2c(ncn2[C@@H]2O[C@H](CO)[C@@H](O)[C@H]2O)c(=O)[nH]1 [compound 2, N^2-methylguanosine], the ΔTm (AtGSDA [1]) was “the inhibitors Ado/isoG or the weak substrate N^2-mG normally lacked one or two functional groups”.
CO[C@@H]1[C@H](O)[C@@H](CO)O[C@H]1n1cnc2c(=O)[nH]c(N)nc21 [compound 1, 2′-O-methylguanosine] was tested, and the ΔTm (AtGSDA [2]) was ~ 2 °C.
In the case of Nc1nc(=O)[nH]c2c1ncn2[C@@H]1O[C@H](CO)[C@@H](O)[C@H]1O [compound 5, isoguanosine], the ΔTm (AtGSDA [3]; 2-keto group ligates zinc) was “its binding mode was similar to that of Xan (Figure 3c, PDB 7DM6)”.
With Nc1ncnc2c1ncn2[C@@H]1O[C@H](CO)[C@@H](O)[C@H]1O [compound 3, adenosine] the ΔTm (AtGSDA [3]) was “The ligand adenosine (Ado) maintained its interactions with Ala81 and Asn69 via N6”.
O=c1[nH]cnc2c1ncn2[C@@H]1O[C@H](CO)[C@@H](O)[C@H]1O [compound 4, inosine] was tested, and the ΔTm (AtGSDA [3]) was “The binding position was almost unchanged when compared to Gua bound by AtGSDA”.
Nc1nc2[nH]cnc2c(=O)[nH]1 [guanine] was tested, and the ΔTm (GDA) was “GDA showed excellent deamination capability by converting almost all of the guanine substrate”.
With O=c1[nH]c(=O)c2ncn([C@@H]3O[C@H](CO)[C@@H](O)[C@H]3O)c2[nH]1 [xanthosine] the ΔTm (AtGSDA [4]) was ~ 2 °C, the ΔTm (AtGSDA [5]) was “WT and Y185F/E showed similar binding affinities toward the ligands” and the ΔTm (AtGSDA [6]) was “WT and Y185F/E showed similar binding affinities toward the ligands”.
With Nc1nc2c(ncn2[C@@H]2O[C@H](CO)[C@@H](O)[C@H]2O)c(=O)[nH]1 [guanosine] the ΔTm (AtGSDA [5]) was “WT and Y185F/E showed similar binding affinities toward the ligands”, the ΔTm (AtGSDA [7]) was “the Y185F-Gua structure indicated that only one Gua molecule was bound” and the ΔTm (AtGSDA [8]) was “the Y185K and E82Q mutants showed differentially reduced affinities”. For the same compound, the ΔTm (AtGSDA [9]) was “the Y185K and E82Q mutants showed differentially reduced affinities”.
